Measurements: patent publication US8815872B2, “Macrocyclics pyrimidines as aurora kinase inhibitors” (Merck Patent GmbH, priority 2008, dated 2014)

What was measured:
Assay in all cases: Other kinases, single-concentration inhibition (Table 3)
Type in all cases: biochemical
[1] = biological target: T1, FGFR4(h) (Homo sapiens, UniProt P22455)
T1 construct: purchased Caliper Life Sciences
Procedure, shortened: (§1)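 Quench: 10 mM EDTA in 100 mM HEPES pH 7.5, 0.015% Brij-35, after 90 min at 25 °C. Before that, compound (single concentration) and kinase reacted with labelled peptide/ATP. Product/substrate peak ratio gave activity, expressed as % inhibition.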

[2] = biological target: T2, EphB2(h) (Homo sapiens, UniProt P29323)
T2 construct: purchased Caliper Life Sciences
T2 sequence (P29323 19-1055): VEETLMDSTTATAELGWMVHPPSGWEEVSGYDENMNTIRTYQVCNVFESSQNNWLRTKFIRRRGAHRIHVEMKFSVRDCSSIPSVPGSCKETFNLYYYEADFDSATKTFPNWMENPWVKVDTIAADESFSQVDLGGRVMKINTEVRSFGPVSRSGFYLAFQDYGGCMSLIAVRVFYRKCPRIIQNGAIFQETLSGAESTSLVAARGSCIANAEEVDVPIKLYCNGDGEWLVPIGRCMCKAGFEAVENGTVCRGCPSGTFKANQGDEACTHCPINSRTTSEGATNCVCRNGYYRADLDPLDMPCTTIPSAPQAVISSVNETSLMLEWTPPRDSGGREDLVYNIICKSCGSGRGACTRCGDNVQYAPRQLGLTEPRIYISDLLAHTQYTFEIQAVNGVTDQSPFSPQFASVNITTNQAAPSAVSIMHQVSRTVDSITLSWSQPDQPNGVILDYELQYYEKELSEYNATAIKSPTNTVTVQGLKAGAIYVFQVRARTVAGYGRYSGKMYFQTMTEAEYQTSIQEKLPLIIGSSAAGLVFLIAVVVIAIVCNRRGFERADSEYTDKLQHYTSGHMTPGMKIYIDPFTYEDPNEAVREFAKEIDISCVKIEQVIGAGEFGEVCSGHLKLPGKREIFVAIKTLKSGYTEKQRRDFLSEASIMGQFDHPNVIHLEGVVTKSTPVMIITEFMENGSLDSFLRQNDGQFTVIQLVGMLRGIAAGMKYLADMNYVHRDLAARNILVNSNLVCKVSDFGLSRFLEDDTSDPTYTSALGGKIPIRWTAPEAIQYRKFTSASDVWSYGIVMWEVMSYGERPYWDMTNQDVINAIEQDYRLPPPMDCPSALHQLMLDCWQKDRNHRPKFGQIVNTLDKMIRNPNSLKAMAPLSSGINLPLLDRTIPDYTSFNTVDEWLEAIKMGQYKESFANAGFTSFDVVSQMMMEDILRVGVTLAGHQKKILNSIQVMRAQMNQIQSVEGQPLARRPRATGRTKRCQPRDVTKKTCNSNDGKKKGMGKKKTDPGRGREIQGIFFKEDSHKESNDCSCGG
Procedure, shortened: as §1

[3] = biological target: T3, ROCK-I(h) (Homo sapiens, UniProt Q13464)
T3 construct: purchased Caliper Life Sciences
T3 sequence (Q13464 whole entry): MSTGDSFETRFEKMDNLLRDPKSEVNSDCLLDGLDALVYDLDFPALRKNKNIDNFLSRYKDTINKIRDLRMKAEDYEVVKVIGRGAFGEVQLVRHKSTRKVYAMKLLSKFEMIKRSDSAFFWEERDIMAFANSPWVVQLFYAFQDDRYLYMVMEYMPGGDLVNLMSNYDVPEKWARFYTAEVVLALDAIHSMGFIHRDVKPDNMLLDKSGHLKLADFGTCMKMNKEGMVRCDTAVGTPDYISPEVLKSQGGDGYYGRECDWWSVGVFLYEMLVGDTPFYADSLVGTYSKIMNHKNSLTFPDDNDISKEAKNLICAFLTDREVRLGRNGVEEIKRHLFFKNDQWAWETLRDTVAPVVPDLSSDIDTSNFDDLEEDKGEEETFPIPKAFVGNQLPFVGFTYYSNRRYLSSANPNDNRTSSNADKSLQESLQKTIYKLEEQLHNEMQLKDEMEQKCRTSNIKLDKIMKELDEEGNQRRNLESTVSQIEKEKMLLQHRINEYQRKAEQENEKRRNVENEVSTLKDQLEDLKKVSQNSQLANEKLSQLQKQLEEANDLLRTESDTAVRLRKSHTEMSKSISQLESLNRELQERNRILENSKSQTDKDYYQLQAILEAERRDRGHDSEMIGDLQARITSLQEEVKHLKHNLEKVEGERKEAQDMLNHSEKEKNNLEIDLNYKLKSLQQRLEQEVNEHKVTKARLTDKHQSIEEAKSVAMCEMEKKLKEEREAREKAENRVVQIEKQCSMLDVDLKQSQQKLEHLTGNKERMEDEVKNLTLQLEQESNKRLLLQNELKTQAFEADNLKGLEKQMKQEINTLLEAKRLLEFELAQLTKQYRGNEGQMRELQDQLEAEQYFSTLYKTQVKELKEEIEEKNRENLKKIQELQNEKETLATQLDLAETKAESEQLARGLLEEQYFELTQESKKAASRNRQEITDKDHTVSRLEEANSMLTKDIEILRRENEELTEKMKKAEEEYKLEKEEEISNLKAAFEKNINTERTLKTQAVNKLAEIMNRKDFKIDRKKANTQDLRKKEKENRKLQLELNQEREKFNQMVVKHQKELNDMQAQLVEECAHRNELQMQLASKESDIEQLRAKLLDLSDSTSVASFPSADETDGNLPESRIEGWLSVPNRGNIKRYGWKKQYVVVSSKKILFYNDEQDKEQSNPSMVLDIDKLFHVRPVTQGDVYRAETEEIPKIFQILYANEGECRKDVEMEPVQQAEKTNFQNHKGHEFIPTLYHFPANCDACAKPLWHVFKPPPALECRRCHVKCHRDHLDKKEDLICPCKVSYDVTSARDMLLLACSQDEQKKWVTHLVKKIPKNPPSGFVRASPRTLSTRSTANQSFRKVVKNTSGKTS
Procedure, shortened: as §1

[4] = biological target: T4, ZIPK(h) (Homo sapiens, UniProt O43293)
T4 construct: purchased Caliper Life Sciences
T4 sequence (O43293 whole entry): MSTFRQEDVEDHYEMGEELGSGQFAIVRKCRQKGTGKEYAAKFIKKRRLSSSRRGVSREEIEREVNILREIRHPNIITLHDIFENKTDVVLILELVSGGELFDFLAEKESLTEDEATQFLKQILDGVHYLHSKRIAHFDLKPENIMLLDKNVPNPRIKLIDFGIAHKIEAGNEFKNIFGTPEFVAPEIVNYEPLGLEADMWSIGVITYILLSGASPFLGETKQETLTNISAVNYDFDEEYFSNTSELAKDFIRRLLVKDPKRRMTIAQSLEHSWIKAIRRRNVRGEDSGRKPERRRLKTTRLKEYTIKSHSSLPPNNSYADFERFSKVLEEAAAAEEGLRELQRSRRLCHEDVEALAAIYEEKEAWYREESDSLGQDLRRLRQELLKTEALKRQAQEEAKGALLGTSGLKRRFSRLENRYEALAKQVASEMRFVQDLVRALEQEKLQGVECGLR
Procedure, shortened: as §1

[5] = biological target: T5, Ret(h) (Homo sapiens, UniProt P07949)
T5 construct: purchased Caliper Life Sciences
T5 sequence (P07949 29-1114): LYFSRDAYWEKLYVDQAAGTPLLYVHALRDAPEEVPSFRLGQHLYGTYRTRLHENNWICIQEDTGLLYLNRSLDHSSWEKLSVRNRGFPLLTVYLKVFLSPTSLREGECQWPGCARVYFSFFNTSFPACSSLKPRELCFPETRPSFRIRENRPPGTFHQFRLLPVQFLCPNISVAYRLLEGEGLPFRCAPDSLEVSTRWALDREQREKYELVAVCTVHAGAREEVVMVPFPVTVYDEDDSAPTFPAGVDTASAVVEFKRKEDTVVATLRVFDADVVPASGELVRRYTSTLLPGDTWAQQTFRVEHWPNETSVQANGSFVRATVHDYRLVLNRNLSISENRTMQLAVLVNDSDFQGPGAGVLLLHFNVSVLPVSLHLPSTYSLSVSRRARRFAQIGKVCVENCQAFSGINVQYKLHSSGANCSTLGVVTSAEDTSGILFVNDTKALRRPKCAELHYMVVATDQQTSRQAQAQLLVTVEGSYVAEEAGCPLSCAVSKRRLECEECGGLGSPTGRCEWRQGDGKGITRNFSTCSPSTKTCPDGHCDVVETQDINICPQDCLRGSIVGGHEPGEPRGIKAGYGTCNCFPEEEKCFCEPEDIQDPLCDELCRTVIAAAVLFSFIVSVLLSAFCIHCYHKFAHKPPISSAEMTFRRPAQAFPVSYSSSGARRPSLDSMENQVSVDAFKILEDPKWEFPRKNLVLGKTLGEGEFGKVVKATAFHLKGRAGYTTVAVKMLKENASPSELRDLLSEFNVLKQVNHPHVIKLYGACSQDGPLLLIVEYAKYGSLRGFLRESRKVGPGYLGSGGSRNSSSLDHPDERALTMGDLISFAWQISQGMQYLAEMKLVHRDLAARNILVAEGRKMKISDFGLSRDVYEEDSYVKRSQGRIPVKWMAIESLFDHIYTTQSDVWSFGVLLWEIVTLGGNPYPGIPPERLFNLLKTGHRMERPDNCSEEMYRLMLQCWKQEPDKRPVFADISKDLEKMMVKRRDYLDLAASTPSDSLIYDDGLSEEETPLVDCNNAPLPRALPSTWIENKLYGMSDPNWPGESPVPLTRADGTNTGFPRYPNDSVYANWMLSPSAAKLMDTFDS
Procedure, shortened: as §1

[6] = biological target: T6, Met(h) (Homo sapiens, UniProt P08581)
T6 construct: purchased Caliper Life Sciences
T6 sequence (P08581 25-1390): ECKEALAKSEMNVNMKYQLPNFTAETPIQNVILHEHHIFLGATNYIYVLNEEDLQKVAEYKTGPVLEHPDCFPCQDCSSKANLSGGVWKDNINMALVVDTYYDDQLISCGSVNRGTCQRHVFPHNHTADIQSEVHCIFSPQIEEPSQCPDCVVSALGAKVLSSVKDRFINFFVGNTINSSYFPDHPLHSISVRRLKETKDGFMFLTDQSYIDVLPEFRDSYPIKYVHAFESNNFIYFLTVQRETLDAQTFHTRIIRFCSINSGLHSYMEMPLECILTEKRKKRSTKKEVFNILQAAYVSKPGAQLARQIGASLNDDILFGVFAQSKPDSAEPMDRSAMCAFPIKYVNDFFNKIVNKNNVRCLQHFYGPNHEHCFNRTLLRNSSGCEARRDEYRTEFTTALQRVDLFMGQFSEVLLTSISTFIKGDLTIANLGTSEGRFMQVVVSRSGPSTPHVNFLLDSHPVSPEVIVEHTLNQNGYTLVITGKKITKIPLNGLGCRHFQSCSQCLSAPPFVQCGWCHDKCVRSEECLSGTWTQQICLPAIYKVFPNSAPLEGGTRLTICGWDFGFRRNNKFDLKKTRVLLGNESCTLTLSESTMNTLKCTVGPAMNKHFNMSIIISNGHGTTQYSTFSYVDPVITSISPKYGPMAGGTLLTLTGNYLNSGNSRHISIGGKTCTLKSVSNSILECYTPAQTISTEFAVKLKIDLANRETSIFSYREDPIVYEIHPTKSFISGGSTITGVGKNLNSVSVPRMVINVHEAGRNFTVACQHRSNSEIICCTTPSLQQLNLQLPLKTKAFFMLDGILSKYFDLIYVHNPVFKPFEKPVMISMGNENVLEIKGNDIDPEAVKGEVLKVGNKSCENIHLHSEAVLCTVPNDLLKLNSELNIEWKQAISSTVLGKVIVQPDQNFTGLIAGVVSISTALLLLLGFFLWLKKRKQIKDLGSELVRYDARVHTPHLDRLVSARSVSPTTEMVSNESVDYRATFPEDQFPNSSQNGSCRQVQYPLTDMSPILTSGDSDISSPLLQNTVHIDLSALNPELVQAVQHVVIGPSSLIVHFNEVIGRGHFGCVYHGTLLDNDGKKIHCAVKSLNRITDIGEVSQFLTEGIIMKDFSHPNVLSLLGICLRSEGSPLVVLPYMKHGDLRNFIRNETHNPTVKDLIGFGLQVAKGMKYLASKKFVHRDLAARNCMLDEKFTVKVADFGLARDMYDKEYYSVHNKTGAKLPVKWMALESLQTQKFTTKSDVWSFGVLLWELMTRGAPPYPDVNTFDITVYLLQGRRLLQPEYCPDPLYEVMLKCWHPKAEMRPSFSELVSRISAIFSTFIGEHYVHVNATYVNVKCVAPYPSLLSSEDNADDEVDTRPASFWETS
Procedure, shortened: as §1

[7] = biological target: T7, Flt3(D835Y)(h) (Homo sapiens, UniProt P36888, D835Y)
T7 construct: purchased Caliper Life Sciences
T7 sequence (P36888 27-993 D835Y): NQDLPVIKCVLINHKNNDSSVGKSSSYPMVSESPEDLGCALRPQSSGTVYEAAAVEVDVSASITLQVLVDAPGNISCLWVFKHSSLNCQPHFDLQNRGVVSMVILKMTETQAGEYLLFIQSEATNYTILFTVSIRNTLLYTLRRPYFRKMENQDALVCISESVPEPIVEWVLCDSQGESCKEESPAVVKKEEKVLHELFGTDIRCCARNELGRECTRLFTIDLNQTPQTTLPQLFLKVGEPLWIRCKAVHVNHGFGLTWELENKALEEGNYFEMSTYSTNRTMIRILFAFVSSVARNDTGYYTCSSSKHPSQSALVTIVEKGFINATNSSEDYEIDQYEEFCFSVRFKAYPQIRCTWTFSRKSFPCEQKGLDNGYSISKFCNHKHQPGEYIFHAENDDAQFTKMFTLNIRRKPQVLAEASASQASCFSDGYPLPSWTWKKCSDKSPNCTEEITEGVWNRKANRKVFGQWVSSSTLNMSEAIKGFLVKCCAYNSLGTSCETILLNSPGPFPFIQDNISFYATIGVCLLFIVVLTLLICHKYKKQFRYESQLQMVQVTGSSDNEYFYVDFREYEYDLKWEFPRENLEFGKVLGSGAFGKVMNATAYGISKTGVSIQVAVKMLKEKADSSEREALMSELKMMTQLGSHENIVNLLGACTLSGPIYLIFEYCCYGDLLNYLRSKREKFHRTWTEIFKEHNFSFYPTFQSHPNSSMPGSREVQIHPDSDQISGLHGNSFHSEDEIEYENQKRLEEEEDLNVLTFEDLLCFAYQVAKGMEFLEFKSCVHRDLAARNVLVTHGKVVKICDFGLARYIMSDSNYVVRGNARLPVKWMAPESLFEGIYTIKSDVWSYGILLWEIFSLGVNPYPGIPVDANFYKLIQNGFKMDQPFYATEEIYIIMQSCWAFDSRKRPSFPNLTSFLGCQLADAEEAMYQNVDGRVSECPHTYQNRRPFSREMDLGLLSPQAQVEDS
Procedure, shortened: as §1

T1 sequence (P22455 22-802): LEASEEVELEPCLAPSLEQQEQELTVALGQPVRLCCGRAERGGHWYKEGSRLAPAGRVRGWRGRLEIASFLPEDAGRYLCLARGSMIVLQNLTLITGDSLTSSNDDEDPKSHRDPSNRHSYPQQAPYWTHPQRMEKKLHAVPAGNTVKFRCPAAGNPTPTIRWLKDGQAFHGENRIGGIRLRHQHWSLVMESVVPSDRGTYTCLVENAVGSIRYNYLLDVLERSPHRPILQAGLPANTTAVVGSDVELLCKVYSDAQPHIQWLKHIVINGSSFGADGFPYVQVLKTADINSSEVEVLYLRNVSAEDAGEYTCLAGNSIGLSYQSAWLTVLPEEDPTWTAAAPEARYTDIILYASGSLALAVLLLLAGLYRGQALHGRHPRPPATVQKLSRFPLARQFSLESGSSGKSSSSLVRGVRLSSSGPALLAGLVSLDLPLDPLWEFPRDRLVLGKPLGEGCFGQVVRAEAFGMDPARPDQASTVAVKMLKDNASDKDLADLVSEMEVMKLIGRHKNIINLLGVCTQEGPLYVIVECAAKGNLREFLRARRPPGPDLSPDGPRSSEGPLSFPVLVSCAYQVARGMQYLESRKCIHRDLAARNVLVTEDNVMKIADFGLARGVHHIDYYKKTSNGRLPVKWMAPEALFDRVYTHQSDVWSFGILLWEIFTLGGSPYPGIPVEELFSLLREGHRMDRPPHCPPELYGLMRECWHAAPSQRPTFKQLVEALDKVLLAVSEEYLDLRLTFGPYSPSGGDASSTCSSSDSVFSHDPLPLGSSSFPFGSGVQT

Structure (SMILES) | % inhibition FGFR4(h) ([1]; 1 μM) [%] | % inhibition EphB2(h) ([2]; 1 μM) [%] | % inhibition ROCK-I(h) ([3]; 1 μM) [%] | % inhibition ZIPK(h) ([4]; 1 μM) [%] | % inhibition Ret(h) ([5]; 1 μM) [%] | % inhibition Met(h) ([6]; 1 μM) [%] | % inhibition Flt3(D835Y)(h) ([7]; 1 μM) [%] | % inhibition FGFR4(h) ([1]; 10 μM) [%] | % inhibition EphB2(h) ([2]; 10 μM) [%] | % inhibition ROCK-I(h) ([3]; 10 μM) [%] | % inhibition ZIPK(h) ([4]; 10 μM) [%] | % inhibition Ret(h) ([5]; 10 μM) [%] | % inhibition Met(h) ([6]; 10 μM) [%] | % inhibition Flt3(D835Y)(h) ([7]; 10 μM) [%]
C=C[C@@H]1C[C@@H]2/C=C/COc3cccc(c3)Nc3ncc(F)c(n3)N[C@H]2[C@H]1C(N)=O (single isomer, unassigned) [Example 3] | 122 | 94 | 101 | 118 | 78 | 115 | 77 | – | – | – | – | – | – | –
CC[C@@H]1C[C@@H]2CCCOc3cccc(c3)Nc3ncc(F)c(n3)N[C@H]2[C@H]1C(N)=O (single isomer, unassigned) [Example 5] | 94 | 94 | 106 | 110 | 52 | 114 | 63 | – | – | – | – | – | – | –
CC[C@@H]1C[C@@H]2/C=C\COc3cccc(c3)Nc3ncc(F)c(n3)N[C@H]2[C@H]1C(N)=O (single isomer, unassigned) [Example 6] | 96 | 80 | 99 | 112 | 12 | 122 | 33 | – | – | – | – | – | – | –
NC(=O)[C@H]1[C@H]2C[C@H]3[C@H]1Nc1nc(ncc1F)Nc1cccc(c1)CSS[C@@H]3C2 [Example 10] | 128 | 5 | 96 | 118 | 7 | 41 | 7 | – | – | – | – | – | – | –
NC(=O)[C@H]1[C@H]2C[C@H]3[C@H]1Nc1nc(ncc1F)Nc1cccc(c1)C(=O)CS[C@@H]3C2 [Example 11] | 100 | 115 | −2 | 84 | 56 | 125 | 110 | – | – | – | – | – | – | –

More lines, now with the values ahead:

% inhibition FGFR4(h) ([1]; 1 μM) [%] | % inhibition EphB2(h) ([2]; 1 μM) [%] | % inhibition ROCK-I(h) ([3]; 1 μM) [%] | % inhibition ZIPK(h) ([4]; 1 μM) [%] | % inhibition Ret(h) ([5]; 1 μM) [%] | % inhibition Met(h) ([6]; 1 μM) [%] | % inhibition Flt3(D835Y)(h) ([7]; 1 μM) [%] | % inhibition FGFR4(h) ([1]; 10 μM) [%] | % inhibition EphB2(h) ([2]; 10 μM) [%] | % inhibition ROCK-I(h) ([3]; 10 μM) [%] | % inhibition ZIPK(h) ([4]; 10 μM) [%] | % inhibition Ret(h) ([5]; 10 μM) [%] | % inhibition Met(h) ([6]; 10 μM) [%] | % inhibition Flt3(D835Y)(h) ([7]; 10 μM) [%] | Structure (SMILES)
102 | 27 | 96 | 93 | 11 | 60 | 8 | – | – | – | – | – | – | – | NC(=O)[C@H]1[C@H]2C[C@H]3[C@H]1Nc1nc(ncc1F)Nc1cccc(c1)OCCS[C@@H]3C2 [Example 20]
– | – | – | – | – | – | – | 81 | 8 | 98 | 86 | 35 | 30 | 2 | O=C(O)[C@H]1[C@H]2C[C@H]3[C@H]1Nc1nc(ncc1F)Nc1cccc(c1)OCCS[C@@H]3C2 [Example 21]
87 | 16 | 109 | 95 | 4 | 46 | 3 | – | – | – | – | – | – | – | CN1CCN(c2ccc3cc2OCCS[C@@H]2C[C@@H]4C[C@H]2[C@@H](Nc2nc(ncc2F)N3)[C@H]4C(N)=O)CC1 [Example 22]
50 | 17 | 93 | 109 | 1 | 63 | 3 | – | – | – | – | – | – | – | CN1CCN(c2ccc3cc2NC(=O)CS[C@@H]2C[C@@H]4C[C@H]2[C@@H](Nc2nc(ncc2F)N3)[C@H]4C(N)=O)CC1 [Example 24]
53 | 112 | 2 | 106 | 50 | 9 | 57 | – | – | – | – | – | – | – | N#Cc1ccc2cc1NC(=O)CS[C@@H]1C[C@@H]3C[C@H]1[C@@H](Nc1nc(ncc1F)N2)[C@H]3C(N)=O [Example 26]
96 | 67 | 104 | 97 | 4 | 69 | 12 | – | – | – | – | – | – | – | NC(=O)[C@H]1[C@H]2C[C@H]3[C@H]1Nc1nc(ncc1F)Nc1cccc(c1)NC(=O)CS[C@@H]3C2 [Example 27]
